Calls of active or inactive are those of the source. The rule behind the calls is not given here.
What was measured:
[1] = system: S. cerevisiae wild-type background strain growth inhibition; test: growth inhibition of vps1Δ apl2Δ yeast, dose response, post-Golgi transport modulator project, S. cerevisiae, background strain comparison (AID 788); details: S. cerevisiae vps1Δ apl2Δ growth inhibition, dose response; measured here: wild-type background strain growth
[2] = system: S. cerevisiae vps1Δ apl2Δ growth inhibition, dose response; test: as above

SMILES	IC50 [1]	IC50 [2]
CCOC(=O)C(C)Oc1ccc2c(C)cc(=O)oc2c1C(C)=O (centres undefined)	> 10 µM	> 10 µM (inactive)
COc1ccc(C2CC(=O)C3=C(C2)NC(C)=C(C(=O)Nc2ccccc2C)C3c2coc3ccc(C)cc3c2=O)cc1OC (centres undefined)	> 10 µM	> 10 µM (inactive)
COCCNC(=O)C(c1ccc(F)cc1)N(CC1CCCO1)C(=O)CCC(=O)Nc1ccccn1 (centres undefined)	> 10 µM	> 10 µM (inactive)
CCc1ccc(C(=O)/C=C/c2ccc([N+](=O)[O-])o2)cc1	20.7 µM	23.1 µM (inactive)
CCOC(=O)c1cccnc1SCc1cc(=O)n2ccccc2n1	> 10 µM	> 10 µM (inactive)
CCCOc1ccccc1N/C(=N/c1nc(C)cc(C)n1)NC(=O)COc1ccc(OC)cc1	> 10 µM	> 10 µM (inactive)
CCCCSCCCNC(=O)Nc1cccc(OC)c1	> 10 µM	> 10 µM (inactive)
CCOC(=O)c1c(NC(=O)CN2CCCCC2)sc2c1CCC(C=O)=C2Cl	> 10 µM	> 10 µM (inactive)
Cc1cccc(-n2c(N)c(C(=O)NCCN3CCOCC3)c3nc4ccccc4nc32)c1	> 10 µM	> 10 µM (inactive)
CCOC(=O)c1c(CN2CCCCC2C)oc2ccc(OC)cc12 (centres undefined)	> 10 µM	> 10 µM (inactive)
COCCCn1c2nc3ccccc3nc2c2c(=O)n(-c3ccccc3OC)cnc21	> 10 µM	> 10 µM (inactive)
Cn1nnc2cc(C(=O)Nc3cccnc3)ccc21	> 10 µM	> 10 µM (inactive)
N#CC1=C(N)NC(SCc2ccc(F)cc2)=C(C#N)C12CCCCC2	16.3 µM	4.84 µM
CCOC(=O)c1cc2c(ccn2C)n1CC(=O)N1CCN(c2ccccc2OC)CC1	> 10 µM	> 10 µM (inactive)
ON=Cc1cccn1-c1ccccc1	> 10 µM	> 10 µM (inactive)
O=[N+]([O-])c1ccc(N/N=C/c2c[nH]c3ccccc23)c(S(=O)(=O)Nc2ccc(Cl)cc2)c1	2.5 µM	2.15 µM

SMILES	IC50 [1]	IC50 [2]
Clc1ccc(Cn2nnc(-c3ccc(CN4CCOCC4)cc3)n2)cc1	> 10 µM	1.33 µM
CCOc1ccc(NC(=O)C/C(N)=N/O)cc1	> 10 µM	> 10 µM (inactive)
Cc1nnc(-c2cccc(Br)c2)c2cn(-c3ccccc3Cl)nc12	25.9 µM	2.73 µM
Cc1cccc(CS(=O)(=O)Cc2ccc(C(=O)NCCCN3CCCC3)o2)c1	> 10 µM	> 10 µM (inactive)
Cc1ccc(C(=O)c2c(NC(=O)c3ccncc3)sc3c2CCCC3)cc1	> 10 µM	16.9 µM
COc1ccc(C2=NC(C(F)(F)F)(C(F)(F)F)c3c(n(C)c(=O)n(C)c3=O)N2)cc1	> 10 µM	> 10 µM (inactive)
C=C(C)C1CC=C(CN2CC(C)OC(C)C2)CC1 (centres undefined)	> 10 µM	4.44 µM
O=C(OCn1ncc(Cl)c(Cl)c1=O)c1cccc(C(F)(F)F)c1	3.51 µM	6 µM (inactive)
OC(Cn1ccnc1)c1ccc(Cl)cc1Cl (centres undefined)	> 10 µM	> 10 µM (inactive)
CC(C)COC(=O)c1ccc2c(c1O)C(=O)c1ccccc1C2=O	> 10 µM	> 10 µM (inactive)
O=C(COc1ccc(Cl)cc1Cl)N1CCN(C/C=C/c2ccccc2)CC1	7.14 µM	1.46 µM
Cc1c(C)c2cc(Cl)c(O)c(CN3CCN(C)CC3)c2oc1=O	> 10 µM	> 10 µM (inactive)
CC(C)Cc1[nH]c(=O)c(C#N)c2c1CCC2	> 10 µM	> 10 µM (inactive)
COc1ccc(-c2nnc(CSc3nc4ccccc4c(=O)n3C)o2)cc1OC	> 10 µM	> 10 µM (inactive)
O=C(NC1CCCC1)C(c1ccsc1)N(C(=O)Cc1cccs1)c1ccc(F)cc1 (centres undefined)	> 10 µM	> 10 µM (inactive)
O=C(NCc1ccco1)C(c1cccs1)N(C(=O)Cc1cccs1)c1ccccc1 (centres undefined)	> 10 µM	> 10 µM (inactive)

From PubChem BioAssay AID788 (SRMLSC, 2007)
